Assay results from patent publication US10752624B2, “Kinase inhibitors” (Origenis GmbH, priority 2012, dated 2020).

What was measured:
LRRK2 = LRRK2 (Homo sapiens, UniProt Q5S007); assay: LRRK2-LRRK2 G2019S-Assay (LanthaScreen Eu Kinase Binding Assay); conditions: 5 nM LRRK2, 10 nM tracer 236, 2 nM EU-Anti-GST antibody, 1 h at RT; read-out: LRRK2 Activities: IC50
Outline: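 In a TR-FRET tracer displacement assay, LRRK2 or its mutants at 5 nM were mixed with 2 nM Eu-anti-GST antibody and 10 nM tracer 236 in kinase buffer A for 1 h at RT. The 665/615 nm emission ratio was plotted against inhibitor concentration, and IC50 came from a variable-slope sigmoidal fit.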

SYK kinase = target: T1, SYK kinase (Homo sapiens, UniProt P43405); assay: SYK Assay (OMNIA Kinase Assay, SOX peptide fluorescence); format: biochemical; conditions: 1 mM ATP, 10 μM Omnia Peptide Substrate Tyr 7, 30° C., readings for 30 minutes; read-out: SYK Activities: IC50
T1 construct: purchased Invitrogen, Carlsbad
Procedure: In the assay OMNIA® KINASE ASSAY by Invitrogen Corporation (Carlsbad) the effect of invention of a compound on the phosphorylation is determined by measurement of fluorescence intensity of a chelation-enhanced fluorophore called SOX. Upon phosphorylation of the peptide by the kinase of interest, Mg2+ is chelated to form a bridge between the SOX moiety and the phosphate group that is transferred to the specific tyrosine on the peptide. The fluorescence intensity is directly proportional to the amount of peptide phosphorylation.
To the wells of an 384 well small volume plate (Greiner, Frickenhausen) are added (i) the compound under test in 5% DMSO/distilled water (2 μl), (ii) 16 μl of the master mix containing ATP, DTT, Kinase Reaction Buffer, Omina Peptide Substrate Tyr 7 resulting in a final concentration of 1 mM ATP, 0.2 mM DTT and 10 μM Peptide Substrate.
The Master Mix and the assay plate was incubated to reaction temperature before the measurement (30° C.). The reaction was started with addition of (iii) 2 μl 4 μg/ml SYK kinase (Invitrogen, Carlsbad). During measurement fluorescence intensity readings were collected using a TECAN M1000 at a wavelength of λex 360/λem 485 nm every 30 s for 30 minutes. The reaction velocity was plotted versus the inhibitor concentration to determine the IC50 using XLFit 5.0 (IDBS, Guildford) to fit to a sigmoidal dose response curve.

Sequence of LRRK2 (Q5S007 970-2527 limits assumed): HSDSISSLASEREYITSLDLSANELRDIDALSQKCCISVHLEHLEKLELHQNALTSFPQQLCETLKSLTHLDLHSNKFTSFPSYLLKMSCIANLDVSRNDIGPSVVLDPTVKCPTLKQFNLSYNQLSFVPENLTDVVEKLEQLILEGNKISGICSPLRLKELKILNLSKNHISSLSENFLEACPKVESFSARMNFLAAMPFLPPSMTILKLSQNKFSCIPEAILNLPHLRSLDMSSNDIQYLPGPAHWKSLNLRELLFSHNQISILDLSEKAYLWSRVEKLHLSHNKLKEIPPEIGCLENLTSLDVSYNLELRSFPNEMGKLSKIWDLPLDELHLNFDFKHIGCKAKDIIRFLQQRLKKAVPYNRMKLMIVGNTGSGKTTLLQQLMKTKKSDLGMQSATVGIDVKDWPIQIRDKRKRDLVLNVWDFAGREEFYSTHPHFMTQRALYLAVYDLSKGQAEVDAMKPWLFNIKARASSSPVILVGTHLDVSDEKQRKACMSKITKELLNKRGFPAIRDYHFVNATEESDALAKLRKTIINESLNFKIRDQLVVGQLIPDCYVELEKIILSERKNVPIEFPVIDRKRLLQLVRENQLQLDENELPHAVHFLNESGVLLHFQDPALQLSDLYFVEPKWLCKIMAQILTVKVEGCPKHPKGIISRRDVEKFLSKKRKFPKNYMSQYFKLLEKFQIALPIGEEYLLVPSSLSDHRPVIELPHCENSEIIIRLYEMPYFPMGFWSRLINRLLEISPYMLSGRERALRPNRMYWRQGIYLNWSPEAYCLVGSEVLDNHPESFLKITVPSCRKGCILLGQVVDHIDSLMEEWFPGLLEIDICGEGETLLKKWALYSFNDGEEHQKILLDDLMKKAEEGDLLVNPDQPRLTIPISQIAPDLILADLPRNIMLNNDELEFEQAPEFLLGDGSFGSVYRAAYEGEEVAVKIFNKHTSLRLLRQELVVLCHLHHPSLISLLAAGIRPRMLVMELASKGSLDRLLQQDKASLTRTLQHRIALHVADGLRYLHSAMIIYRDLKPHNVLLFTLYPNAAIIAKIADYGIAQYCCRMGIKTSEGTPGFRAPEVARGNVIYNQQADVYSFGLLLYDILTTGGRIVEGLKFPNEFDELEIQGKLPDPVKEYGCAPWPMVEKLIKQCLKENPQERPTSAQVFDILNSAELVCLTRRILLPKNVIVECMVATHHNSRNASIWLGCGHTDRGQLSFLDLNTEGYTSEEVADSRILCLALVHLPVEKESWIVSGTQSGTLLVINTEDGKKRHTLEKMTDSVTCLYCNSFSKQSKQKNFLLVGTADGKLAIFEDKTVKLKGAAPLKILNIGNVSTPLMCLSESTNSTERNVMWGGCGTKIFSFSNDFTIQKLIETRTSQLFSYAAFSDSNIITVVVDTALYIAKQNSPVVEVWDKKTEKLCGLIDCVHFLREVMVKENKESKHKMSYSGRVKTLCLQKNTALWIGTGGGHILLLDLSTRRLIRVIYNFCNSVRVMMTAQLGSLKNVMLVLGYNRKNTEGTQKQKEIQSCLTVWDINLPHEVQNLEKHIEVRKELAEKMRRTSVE

| Structure (SMILES) | IC50 (LRRK2) | IC50 (SYK kinase) |
| --- | --- | --- |
| CS(=O)(=O)c1ccc2c(c1)nc(Nc1ccc3c(c1)NC(=O)CCC3)c1[nH]ncc12 [Example 119, 8-((7-(methylsulfonyl)-3H-pyrazolo[3,4-c]quinolin-4-yl)amino)-4,5-dihydro-1H-benzo[b]azepin-2(3H)-one] | 100 to 1000 nM | 10 to 100 nM |
| CN1CCC(n2cc(Nc3nc4cc(S(C)(=O)=O)ccc4c4cn[nH]c34)cn2)CC1 [Example 167, N-(1-(1-methylpiperidin-4-yl)-1H-pyrazol-4-yl)-7-(methylsulfonyl)-3H-pyrazolo[3,4-c]quinolin-4-amine] | 100 to 1000 nM | 10 to 100 nM |
| CC(=O)N1CCC(n2cc(Nc3nc4cc(S(C)(=O)=O)ccc4c4cn[nH]c34)cn2)CC1 [Example 168, 1-(4-(4-((7-(methylsulfonyl)-3H-pyrazolo[3,4-c]quinolin-4-yl)amino)-1H-pyrazol-1-yl)piperidin-1-yl)ethan-1-one] | 10 to 100 nM | 10 to 100 nM |
| COCCn1cc(Nc2nc3cc(S(C)(=O)=O)ccc3c3cn[nH]c23)cn1 [Example 170, N-(1-(2-methoxyethyl)-1H-pyrazol-4-yl)-7-(methylsulfonyl)-3H-pyrazolo[3,4-c]quinolin-4-amine] | 100 to 1000 nM | 100 to 1000 nM |
| COCCn1cc(Nc2nc3cc(SC)ccc3c3cn[nH]c23)cn1 [Example 171, N-(1-(2-methoxyethyl)-1H-pyrazol-4-yl)-7-(methylthio)-3H-pyrazolo[3,4-c]quinolin-4-amine] | 100 to 1000 nM | 100 to 1000 nM |
| CC(C)(C#N)n1cc(Nc2nc3ccc(S(C)(=O)=O)cc3c3cn[nH]c23)cn1 [Example 172, 2-methyl-2-(4-((8-(methylsulfonyl)-3H-pyrazolo[3,4-c]quinolin-4-yl)amino)-1H-pyrazol-1-yl)propanenitrile] | 10 to 100 nM | < 10 nM |
| CS(=O)(=O)c1ccc2nc(Nc3cnn(C4COC4)c3)c3[nH]ncc3c2c1 [Example 173, 8-(methylsulfonyl)-N-(1-(oxetan-3-yl)-1H-pyrazol-4-yl)-3H-pyrazolo[3,4-c]quinolin-4-amine] | 10 to 100 nM | < 10 nM |
| CS(=O)(=O)c1ccc2nc(Nc3ccc(C(=O)N4CCOCC4)c(F)c3)c3[nH]ncc3c2c1 [Example 175, (2-fluoro-4-((8-(methylsulfonyl)-3H-pyrazolo[3,4-c]quinolin-4-yl)amino)phenyl)(morpholino)methanone] | 10 to 100 nM | 100 to 1000 nM |
| CC(C)(C)n1cc(Nc2nc3cc(S(C)(=O)=O)ccc3c3cn[nH]c23)cn1 [Example 188, N-(1-(tert-butyl)-1H-pyrazol-4-yl)-7-(methylsulfonyl)-3H-pyrazolo[3,4-c]quinolin-4-amine] | 10 to 100 nM | 100 to 1000 nM |
| CC(C)n1cc(Nc2nc3cc(S(C)(=O)=O)ccc3c3cn[nH]c23)cn1 [Example 189, N-(1-isopropyl-1H-pyrazol-4-yl)-7-(methylsulfonyl)-3H-pyrazolo[3,4-c]quinolin-4-amine] | 10 to 100 nM | 10 to 100 nM |
| COCCCn1cc(Nc2nc3cc(S(C)(=O)=O)ccc3c3cn[nH]c23)cn1 [Example 190, N-(1-(3-methoxypropyl)-1H-pyrazol-4-yl)-7-(methylsulfonyl)-3H-pyrazolo[3,4-c]quinolin-4-amine] | 10 to 100 nM | 10 to 100 nM |
| CC(C)(C#N)n1cc(Nc2nc3cc(S(C)(=O)=O)ccc3c3cn[nH]c23)cn1 [Example 191, 2-methyl-2-(4-((7-(methylsulfonyl)-3H-pyrazolo[3,4-c]quinolin-4-yl)amino)-1H-pyrazol-1-yl)propanenitrile] | 10 to 100 nM | 100 to 1000 nM |

Other lines, results leading:

| IC50 (LRRK2) | IC50 (SYK kinase) | Structure (SMILES) |
| --- | --- | --- |
| 10 to 100 nM | 100 to 1000 nM | CS(=O)(=O)c1cccc2nc(Nc3cnn(C4CCOCC4)c3)c3[nH]ncc3c12 [Example 108, 9-(methylsulfonyl)-N-(1-(tetrahydro-2H-pyran-4-yl)-1H-pyrazol-4-yl)-3H-pyrazolo[3,4-c]quinolin-4-amine] |
| 10 to 100 nM | 100 to 1000 nM | COCCn1cc(Nc2nc3ccc(OC)cc3c3c[nH]nc23)cn1 [Example 109, 8-methoxy-N-(1-(2-methoxyethyl)-1H-pyrazol-4-yl)-2H-pyrazolo[3,4-c]quinolin-4-amine] |
| < 10 nM | 10 to 100 nM | COc1cccc2nc(Nc3cnn(C4CCN(C)CC4)c3)c3[nH]ncc3c12 [Example 118, 9-methoxy-N-(1-(1-methylpiperidin-4-yl)-1H-pyrazol-4-yl)-3H-pyrazolo[3,4-c]quinolin-4-amine] |
| < 10 nM | 10 to 100 nM | CS(=O)(=O)c1ccc2c(c1)nc(Nc1cnn(C3CCOCC3)c1)c1[nH]ncc12 [Example 120, 7-(methylsulfonyl)-N-(1-(tetrahydro-2H-pyran-4-yl)-1H-pyrazol-4-yl)-3H-pyrazolo[3,4-c]quinolin-4-amine] |
| < 10 nM | 10 to 100 nM | CS(=O)(=O)c1ccc2nc(Nc3cnn(C4CCOCC4)c3)c3[nH]ncc3c2c1 [Example 143, 8-(methylsulfonyl)-N-(1-(tetrahydro-2H-pyran-4-yl)-1H-pyrazol-4-yl)-3H-pyrazolo[3,4-c]quinolin-4-amine] |
| < 10 nM | 10 to 100 nM | COCCCn1cc(Nc2nc3ccc(S(C)(=O)=O)cc3c3cn[nH]c23)cn1 [Example 178, N-(1-(3-methoxypropyl)-1H-pyrazol-4-yl)-8-(methylsulfonyl)-3H-pyrazolo[3,4-c]quinolin-4-amine] |
| < 10 nM | 10 to 100 nM | CS(=O)(=O)c1ccc2nc(Nc3cnn(C4(C#N)CCCCC4)c3)c3[nH]ncc3c2c1 [Example 179, 1-(4-((8-(methylsulfonyl)-3H-pyrazolo[3,4-c]quinolin-4-yl)amino)-1H-pyrazol-1-yl)cyclohexanecarbonitrile] |
| < 10 nM | < 10 nM | CC(C)n1cc(Nc2nc3ccc(S(C)(=O)=O)cc3c3cn[nH]c23)cn1 [Example 180, N-(1-isopropyl-1H-pyrazol-4-yl)-8-(methylsulfonyl)-3H-pyrazolo[3,4-c]quinolin-4-amine] |
| < 10 nM | 10 to 100 nM | COc1cccc2nc(Nc3cnn(C(C)C)c3)c3[nH]ncc3c12 [Example 182, N-(1-isopropyl-1H-pyrazol-4-yl)-9-methoxy-3H-pyrazolo[3,4-c]quinolin-4-amine] |
| < 10 nM | 100 to 1000 nM | COCCCn1cc(Nc2nc3cccc(OC)c3c3cn[nH]c23)cn1 [Example 183, 9-methoxy-N-(1-(3-methoxypropyl)-1H-pyrazol-4-yl)-3H-pyrazolo[3,4-c]quinolin-4-amine] |
| < 10 nM | 10 to 100 nM | COc1cccc2nc(Nc3cnn(C(C)(C)C#N)c3)c3[nH]ncc3c12 [Example 184, 2-(4-((9-methoxy-3H-pyrazolo[3,4-c]quinolin-4-yl)amino)-1H-pyrazol-1-yl)-2-methylpropanenitrile] |
| < 10 nM | 10 to 100 nM | CS(=O)(=O)c1ccc2nc(Nc3cnn(CCO)c3)c3[nH]ncc3c2c1 [Example 186, 2-(4-((8-(methylsulfonyl)-3H-pyrazolo[3,4-c]quinolin-4-yl)amino)-1H-pyrazol-1-yl)ethan-1-ol] |
| < 10 nM | 10 to 100 nM | CC(C)Cn1cc(Nc2nc3ccc(S(C)(=O)=O)cc3c3cn[nH]c23)cn1 [Example 187, N-(1-isobutyl-1H-pyrazol-4-yl)-8-(methylsulfonyl)-3H-pyrazolo[3,4-c]quinolin-4-amine] |
